We go through 4 molecules from US20240132525A1, “BORON […], CO[…], METHODS AND USES THEREOF” (priority 2022, published 2024).

SMILES strings stand for the structures. Where two headings read alike, the source gives them in different places. A value given as a limit tells only on which side of the number the result lay.

Broadly, the IC50 is the midpoint of a concentration-inhibition curve. A word on the Cmax: it is the highest concentration seen after dosing. In general, Tmax refers to the time from dosing to the highest level.

Data set [1] addresses JAK2 (Homo sapiens (Human), UniProt O60674). Kind of data set: Biochemical kinase assay (33P-ATP filter-binding), JAK2. The text has this:
(§1) Biochemical Kinase Assay Protocol (JAK)
(§2) Reaction Procedure: • 1. […] Detected kinase activity by filter-binding method.

For data set [2], the system named is IL-31. Kind of data set: Cytokine function assay for IL-31 in DH82 cells. Type of data set: cell-based, canine. Particulars: Canis lupus familiaris, DH82; Table 3a; read-out: IC50 IL-31. As to the method: Cytokine Function Assay Protocol for IL-31
The protocol for the cytokine function assay for IL-31 is set forth below: • 1. […] After 24 hr, wash with 37° C. pre-warmed PBS (100 uL/well). • 3. Add serum-free MEM, 90 uL per well, 2 hr, 37° C. • 4. Add 10 uL 10×IL-31 (40, 10, 2.5 ug/mL) in duplicate, 5 min, 37° C. • 5. Remove medium, add 60 uL lysis buffer per well. Agitate on a plate shaker (˜350 rpm) for 10 min at RT. • 6. […] Add 6 uL Acceptor Mix, cover with aluminum foil, quickly spin at 1000 rpm, shake at 120 rpm for 2 min, then incubate at RT for 1 hr. • 8. Add 6 uL Donor Mix, cover with aluminum foil, quickly spin at 1000 rpm, shake at 120 rpm for 2 min, then incubate at RT for 1 hr. • 9. Measure the fluorescence using EnVision™ plate reader.

Data set [3] has as its system IL-4/pSTAT6. Description: Cytokine function assay IL-4/pSTAT6 in PBMC. Type of data set: cell-based. As to conditions: PBMC, read-out: IC50 IL-4, Table 3a. The procedure:
(§3) Cytokine Function Assay Protocols for IL-4/pSTAT6 and GM-CSF/pSTAT5
IL-4/pSTAT6: • PBMC from a healthy donor was plated onto a 96 w plate. Compound was added and incubated for 1 hour (at 37° C.). After 1 hour, cells were stimulated with IL-4 for 15 minutes. Cells were fixed and stained with anti-pSTAT6 antibody. After staining, cells were read on a Beckman-Coulter CytoFLEX.

Data set [4] has as its system recombinant canine IL-31 induced pruritic behaviors. Kind of data set: IL-31 induced itch behavior in Beagle dogs. The class given is in vivo. As to conditions: oral 1 mg/kg once daily for 5 days, IL-31 1.75 μg/kg i.v. on day 5. As to the method:
Ten healthy adult male Beagle dogs with no previous history of pruritus or skin disease were selected. […] Afterward, all dogs received repeated administration of oral solution and again intravenously recombinant canine IL-31 injections to assess inhibition of IL-31 induced itch behavior. (See, e.g., Gonzales, Vet. Dermatol. 2016, 27, 34-e10 and Pearson, Vet. Sci. 2023, 10, 369)
An oral solution of a representative compound of the present disclosure, Example 33a, at 1 mg/kg once daily in the morning for five (5) days, was administered to each dog in a crossover design for the five (5) consecutive days. All dogs were fasted during the oral administration and thirty minutes (30 min) post oral drug administration. On day 5, all dogs were administered a recombinant canine IL-31 intravenously at the dose of 1.75 μg/kg.

In data set [5] the target is JAK1 (Homo sapiens (Human), UniProt P23458). Kind of data set: Biochemical kinase assay (33P-ATP filter-binding), JAK1.
Source text: as §1, §2

A short description of data set [6]: Pharmacokinetic profile after single oral administration in Beagle dogs. Type of data set: in vivo. Particulars: male Beagle dogs, single oral dose about 1.0 mg/kg, fasted; for concentration at 48 h: read-out: Mean Clast. As to the method: Summary of Pharmacokinetic (PK) profile
Three healthy male Beagle dogs were studied to determine a representative pharmacokinetic (PK) profile following a single oral administration of 1.0 mg/kg to each dog in a fasted state. Blood samples were collected at pre-dose, 0.25, 0.5, 1, 2, 4, 8, 24; 32, and 48 h post dose following oral administration (1 mg/mL in 10% Propylene glycol (PG), 45% PEG400, 7% Cremophor EL, 38% 50 mM citrate buffer pH 3.0 suspension or clear solution).

Data set [7] relates to GM-CSF/pSTAT5. Kind of data set: Cytokine function assay GM-CSF/pSTAT5 in lysed whole blood cells. Type of data set: cell-based. As to conditions: Whole blood cell, read-out: IC50 GM-CSF. As to the method:
as §3
GM-CSF/pSTAT5: • Whole blood from a healthy donor was lysed to remove red blood cells. Cells were plated onto a 96 well plate. Compound was added and incubated for 1 hour (at 37° C.). After 1 hour, cells were stimulated with GM-CSF for 15 minutes. Cells were fixed and stained with anti-pSTAT5 antibody. After staining, cells were read on a Beckman-Coulter CytoFLEX.

The nature of data set [8]: Dog LM (liver microsome) assay. Type of data set: in vitro ADME. Particulars: Table 3a; predicted clearance as percent of liver blood flow, 1 μM, 1 mg/ml microsomal protein. In a few lines: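 Pooled Beagle liver microsomes (1 mg/ml protein), compound 1 μM, Tris pH 7.6 with 5 mM MgCl2, 37 °C, started with 1 mM NADPH; parent loss by LC-MS/MS over several time points.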

Data set [9] has as its target PDE4B (Homo sapiens (Human), UniProt Q07343). Kind of data set: PDE4B inhibition. The class given is biochemical. As to conditions: Table 3a.

Sequence of JAK2 (O60674 whole entry, species assumed): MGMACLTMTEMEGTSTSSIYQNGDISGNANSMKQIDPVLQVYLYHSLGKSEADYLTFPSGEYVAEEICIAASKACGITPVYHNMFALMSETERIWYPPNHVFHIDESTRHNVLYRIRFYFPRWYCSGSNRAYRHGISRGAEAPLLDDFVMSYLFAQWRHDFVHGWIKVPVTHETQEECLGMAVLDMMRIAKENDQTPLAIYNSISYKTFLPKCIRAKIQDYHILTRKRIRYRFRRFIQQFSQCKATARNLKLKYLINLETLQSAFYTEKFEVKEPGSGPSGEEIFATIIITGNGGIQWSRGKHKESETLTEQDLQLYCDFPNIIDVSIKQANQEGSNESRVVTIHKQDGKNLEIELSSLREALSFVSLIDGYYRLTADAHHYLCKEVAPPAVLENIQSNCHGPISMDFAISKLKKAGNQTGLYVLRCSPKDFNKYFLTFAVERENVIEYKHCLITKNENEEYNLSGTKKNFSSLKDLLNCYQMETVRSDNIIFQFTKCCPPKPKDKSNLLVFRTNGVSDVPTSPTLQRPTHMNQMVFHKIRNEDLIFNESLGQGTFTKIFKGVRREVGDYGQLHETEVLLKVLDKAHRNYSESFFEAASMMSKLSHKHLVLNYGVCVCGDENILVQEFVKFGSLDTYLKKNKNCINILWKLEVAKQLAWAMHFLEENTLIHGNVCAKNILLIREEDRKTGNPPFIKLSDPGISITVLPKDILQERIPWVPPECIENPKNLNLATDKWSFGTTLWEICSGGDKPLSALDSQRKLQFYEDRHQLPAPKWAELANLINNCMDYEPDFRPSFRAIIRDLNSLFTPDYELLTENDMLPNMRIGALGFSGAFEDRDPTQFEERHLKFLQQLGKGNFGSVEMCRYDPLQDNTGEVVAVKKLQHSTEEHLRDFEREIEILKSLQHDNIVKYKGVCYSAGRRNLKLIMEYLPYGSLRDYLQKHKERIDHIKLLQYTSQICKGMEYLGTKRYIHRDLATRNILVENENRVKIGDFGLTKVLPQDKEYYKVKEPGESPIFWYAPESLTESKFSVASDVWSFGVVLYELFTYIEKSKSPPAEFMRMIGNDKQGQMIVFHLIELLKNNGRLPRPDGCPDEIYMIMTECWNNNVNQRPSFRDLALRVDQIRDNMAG
Sequence of JAK1 (P23458 whole entry, species assumed): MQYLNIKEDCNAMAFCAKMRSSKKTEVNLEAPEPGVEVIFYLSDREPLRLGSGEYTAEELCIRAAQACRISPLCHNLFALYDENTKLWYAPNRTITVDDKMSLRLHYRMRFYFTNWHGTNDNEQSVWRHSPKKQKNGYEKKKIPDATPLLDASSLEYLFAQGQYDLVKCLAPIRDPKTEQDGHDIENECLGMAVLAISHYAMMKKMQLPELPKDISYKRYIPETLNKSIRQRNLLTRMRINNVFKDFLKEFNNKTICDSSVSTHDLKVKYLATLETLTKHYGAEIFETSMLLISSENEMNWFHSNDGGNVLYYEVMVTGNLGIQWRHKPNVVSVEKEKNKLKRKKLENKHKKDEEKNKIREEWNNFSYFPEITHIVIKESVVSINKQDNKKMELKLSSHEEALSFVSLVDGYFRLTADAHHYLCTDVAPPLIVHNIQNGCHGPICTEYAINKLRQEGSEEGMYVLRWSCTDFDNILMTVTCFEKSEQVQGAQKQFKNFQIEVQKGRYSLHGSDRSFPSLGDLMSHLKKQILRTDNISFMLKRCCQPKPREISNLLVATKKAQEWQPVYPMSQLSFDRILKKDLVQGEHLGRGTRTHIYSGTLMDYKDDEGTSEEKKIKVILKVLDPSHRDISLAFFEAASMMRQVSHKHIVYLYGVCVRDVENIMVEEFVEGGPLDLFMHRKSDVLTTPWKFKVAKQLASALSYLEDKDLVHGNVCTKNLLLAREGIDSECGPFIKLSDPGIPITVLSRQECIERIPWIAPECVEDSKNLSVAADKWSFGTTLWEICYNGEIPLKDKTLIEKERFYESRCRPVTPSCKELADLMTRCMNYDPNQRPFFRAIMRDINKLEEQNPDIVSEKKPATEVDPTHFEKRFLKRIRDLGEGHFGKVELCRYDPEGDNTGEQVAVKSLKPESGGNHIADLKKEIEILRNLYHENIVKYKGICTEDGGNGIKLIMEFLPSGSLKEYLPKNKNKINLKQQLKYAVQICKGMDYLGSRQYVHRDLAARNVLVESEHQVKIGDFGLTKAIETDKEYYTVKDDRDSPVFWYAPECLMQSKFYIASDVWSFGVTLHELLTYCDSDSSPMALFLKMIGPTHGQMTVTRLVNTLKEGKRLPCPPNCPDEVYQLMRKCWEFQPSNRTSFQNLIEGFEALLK
Sequence of PDE4B (Q07343 whole entry, species assumed): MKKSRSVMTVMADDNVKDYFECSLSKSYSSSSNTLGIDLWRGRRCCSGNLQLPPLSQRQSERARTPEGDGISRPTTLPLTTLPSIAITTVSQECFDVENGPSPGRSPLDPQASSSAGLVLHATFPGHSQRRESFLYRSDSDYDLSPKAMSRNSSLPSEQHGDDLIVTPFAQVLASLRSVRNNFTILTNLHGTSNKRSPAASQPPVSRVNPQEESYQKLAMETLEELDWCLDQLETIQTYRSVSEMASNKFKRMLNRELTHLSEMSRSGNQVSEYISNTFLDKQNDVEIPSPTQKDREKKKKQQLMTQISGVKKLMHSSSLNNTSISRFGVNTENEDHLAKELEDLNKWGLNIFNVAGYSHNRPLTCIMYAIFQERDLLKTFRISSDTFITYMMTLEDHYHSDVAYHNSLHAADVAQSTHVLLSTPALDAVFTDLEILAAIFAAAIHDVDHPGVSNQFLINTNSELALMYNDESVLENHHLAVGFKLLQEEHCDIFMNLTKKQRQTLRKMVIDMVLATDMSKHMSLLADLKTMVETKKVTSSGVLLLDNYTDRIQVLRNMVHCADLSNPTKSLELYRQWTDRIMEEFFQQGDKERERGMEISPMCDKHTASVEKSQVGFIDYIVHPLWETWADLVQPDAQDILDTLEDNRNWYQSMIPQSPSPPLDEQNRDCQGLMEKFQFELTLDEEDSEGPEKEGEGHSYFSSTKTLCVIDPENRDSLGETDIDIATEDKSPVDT

Take `Cc1cnc(Nc2cc3c(c(C(F)(F)F)c2)B(O)OC3)nc1N[C@@H]1COCC[C@H]1C#N` (single isomer, unassigned) [Example 033a, (trans)-3-[[2-[[1-hydroxy-7-(trifluoromethyl)-3H-2,1-benzoxaborol-5-yl]amino]-5-methyl-pyrimidin-4-yl]amino]tetrahydropyran-4-carbonitrile]: the IC50 was determined as 0.0081 µM in data set [1] (Table 3a, read-out: IC50 JAK2); 0.0191 µM in [2]; 0.137 µM in data set [3]; 0.0004 µM in data set [5] (Table 3a, read-out: IC50 JAK1); 1.7 µM in data set [7]. For the same molecule, the “anti-pruritic effect compared to IL-31 baseline/alone” value in data set [4] is on record as “significant anti-pruritic effect”. Besides, in [6] (dog, in vivo), the concentration peaked (Cmax) at 279 ng/mL. Further, the AUC(0-inf) in data set [6] (dog, in vivo, read-out: Mean AUCINF_obs) was 2.56 µg·h/mL. Besides, the AUC(0-t) in [6] (dog, in vivo, read-out: Mean AUClast) was found to be 2.46 µg·h/mL. Also, the concentration at 48 h in data set [6] (dog, in vivo) was found to be 4.74 ng/mL. For the same molecule, in data set [6] (dog, in vivo, read-out: Mean T1/2 (converted)), the half-life was 14.6 h. For the same molecule, the time of peak concentration (Tmax) in [6] (dog, in vivo, read-out: Median Tmax) was determined as 1 h. In addition, in [6], the “Median Tlast” value was 48 h. In addition, the “Dog LM QH” value in data set [8] is recorded as <19.9%.
Turning to `Cc1cnc(Nc2cc(Cl)c3c(c2)COB3O)nc1N[C@@H]1COCC[C@H]1C#N` (single isomer, unassigned) [Example 031b, (trans)-3-((2-((7-chloro-1-hydroxy-1,3-dihydrobenzo[c][1,2]oxaborol-5-yl)amino)-5-methylpyrimidin-4-yl)amino)tetrahydro-2H-pyran-4-carbonitrile], in data set [6] (dog, in vivo), the concentration at 48 h was found to be 7.98 ng/mL. The “Median Tlast” value in data set [6] is on record as 48 h. For the same molecule, in [8], the “Dog LM QH” value is on record as <19.9%.
`Cc1cnc(Nc2ccc3c(c2)COB3O)nc1N[C@@H]1COCC[C@H]1C#N` (single isomer, unassigned) [Example 026a, (trans)-3-((2-((1-hydroxy-1,3-dihydrobenzo[c][1,2]oxaborol-5-yl)amino)-5-methylpyrimidin-4-yl)amino)tetrahydro-2H-pyran-4-carbonitrile]: the IC50 in data set [1] (IC50 JAK2, Table 3a) came out at 0.0016 µM; in data set [2] it was 0.0216 µM; in data set [3], 0.0497 µM; in [5] (IC50 JAK1, Table 3a), 0.0004 µM; in [7], 4.24 µM; in data set [9] it was 0.972 µM. Moreover, in data set [8], the “Dog LM QH” value is listed as <19.9%.
As to `Cc1cnc(Nc2cc(F)c3c(c2)COB3O)nc1NC1COCCC1C#N` (racemic) [Example 029, (trans)-3-((2-((7-fluoro-1-hydroxy-1,3-dihydrobenzo[c][1,2]oxaborol-5-yl)amino)-5-methylpyrimidin-4-yl)amino)tetrahydro-2H-pyran-4-carbonitrile], the IC50 in data set [1] (Table 3a, read-out: IC50 JAK2) was 0.0098 µM; in data set [2], 0.0495 µM; in data set [3] it was 0.0583 µM; in [5] (Table 3a, read-out: IC50 JAK1) it was 0.0002 µM; in data set [7], 2.24 µM; in data set [9], 0.978 µM. In data set [8], the “Dog LM QH” value is on record as <19.9%.
